In patent publication US20100305087A1, “ACTIVE PHARMACEUTICAL INGREDIENT ON A SOLID SUPPORT, AMORPHOUS AND WITH AN IMPROVED SOLUBILITY” (Lek Pharmaceuticals d.d., priority 2007, published 2010):
Blank lines part the entries; values can stand above or below the compound they belong to.

Tests used:
[1] = Dissolution profile of ezetimibe preparations in water (amount dissolved over time); assay type: physicochemical
Text: The results are shown in Tables 1 to 3, and FIGS. 1 to 3.

[2] = cited from earlier work
[3] = Dissolution profile of atovaquone preparations in 10 mM triethylamine/HCl (pH=10) buffer; assay type: physicochemical

Compound: O=C1[C@H](CC[C@H](O)c2ccc(F)cc2)[C@@H](c2ccc(O)cc2)N1c1ccc(F)cc1 [Amorphous ezetimibe, 1-(4-fluorophenyl)-3-[3-(4-fluorophenyl)-3-hydroxy-propyl]-4-(4-hydroxyphenyl)-azetidin-2-one]
- Amount dissolved ([1]; Ezetimibe and Aerosil 200, time 10 min): 0.19 µg/mL
- Amount dissolved ([1]; Ezetimibe and Aerosil 200, time 20 min): 0.20 µg/mL
- Amount dissolved ([1]; Ezetimibe and Aerosil 200, time 45 min): 0.27 µg/mL
- Amount dissolved ([1]; Ezetimibe and Aerosil 200, time 100 min): 0.41 µg/mL

Compound: O=C1C(=O)c2ccccc2C(O)=C1C1CCC(c2ccc(Cl)cc2)CC1 (centres unmarked) [atovaquone, 3-[4-(4-chlorophenyl)cyclohexyl]-4-hydroxy-naphthalene-1,2-dione]
- log P/hydrophobicity value [2]: 5.251

Compound: O=C1[C@H](CC[C@H](O)c2ccc(F)cc2)[C@@H](c2ccc(O)cc2)N1c1ccc(F)cc1 [ezetimibe, 1-(4-fluorophenyl)-3-[3-(4-fluorophenyl)-3-hydroxy-propyl]-4-(4-hydroxyphenyl)-azetidin-2-one]
- log P/hydrophobicity value [2]: 4.584

Results, then the compound that gave them:

- Amount dissolved ([1]; Ezetimibe and Prosolv, time 10 min): 0.08 µg/mL
- Amount dissolved ([1]; Ezetimibe and Prosolv, time 20 min): 0.13 µg/mL
- Amount dissolved ([1]; Ezetimibe and Prosolv, time 60 min): 0.12 µg/mL
- Amount dissolved ([1]; Ezetimibe and Prosolv, time 100 min): 0.25 µg/mL
Compound: O=C1[C@H](CC[C@H](O)c2ccc(F)cc2)[C@@H](c2ccc(O)cc2)N1c1ccc(F)cc1 [Crystalline ezetimibe, 1-(4-fluorophenyl)-3-[3-(4-fluorophenyl)-3-hydroxy-propyl]-4-(4-hydroxyphenyl)-azetidin-2-one]

- Amount dissolved ([3]; Atovaquone and Aerosil 200, time 10 min): 0.16 µg/mL
- Amount dissolved ([3]; Atovaquone and Aerosil 200, time 20 min): 0.7 µg/mL
- Amount dissolved ([3]; Atovaquone and Aerosil 200, time 60 min): 4.1 µg/mL
- Amount dissolved ([3]; Atovaquone and Aerosil 200, time 100 min): 6.2 µg/mL
Compound: O=C1C(=O)c2ccccc2C(O)=C1C1CCC(c2ccc(Cl)cc2)CC1 (centres unmarked) [Crystalline atovaquone, 3-[4-(4-chlorophenyl)cyclohexyl]-4-hydroxy-naphthalene-1,2-dione]
